In patent publication US20060201053A1, “Barrier preventing wood pest access to wooden structures” (priority 2000, published 2006):
Marks after values point to notes of the source that are not given here.

Assays:
Assay type in all cases: physicochemical
[1] = Release rate of pesticides from controlled release devices, one inch squares of 1/8 inch sheets (Example 3)
Source text: Controlled release devices were made and tested to obtain their release rates. All thermoplastic polymers were formulated with 10 percent pesticide, 3 or 7 percent carbon black to absorb liquid pesticide, and 83 to 87 percent by weight of polymer and injection molded into thin sheets about ⅛ inch thick. […] The devices made from the remaining pesticides and thermoplastic polymers contained 7 percent of carbon black.
The devices made from S-113 urethane (a thermoset polymer) were made from a polymer mix containing 60% S-113, 40% castor oil and […] of TIPA catalyst by weight. The polymer mix comprised 90% of the total weight of the device. The pesticide, deltamethrin, comprised the remaining 10% of the device. No carbon black was used in this device. The polymer/pesticide mixture was cast into a ⅛ inch thick sheet and heated at about 60° C. for about 40 to 60 minutes to cure the cast sheet.
One inch squares were then cut from the thin sheets that were injection molded or cast and the squares were tested for release rates.

[2] = Release rate versus lambda cyhalothrin concentration and polymer combination (Example 4)
Experimental: An experiment was conducted to determine the effect of lambda cyhalothrin (pyrethroid) concentration and insecticide/polymer combination on release rate of insecticide from the polymer.

[3] = Effect of carbon black binding carrier on release rate (Example 6); conditions: active chemical 5 wt. %, high density polyethylene (MA 778-000), 6 weeks after fabrication
Experimental: Release rates were measured at 6 weeks after fabrication wherein samples were wiped weekly to remove surface accumulation of released active chemical.

[4] = Release rate of lambda cyhalothrin from multi-layer barrier film
Source text: The release rate of bioactive chemicals from the bonding layer 126 to the other layers is greater than the release rate of bioactive chemicals from the barrier film 110 to the exterior of the barrier film 110.

[5] = Thermal decomposition of the pesticide during processing
Experimental: To have a safety cushion for operating conditions, it is beneficial to have a processing temperature of approximately 150° C.
(§1) The polymers evaluated included low melt polyethylene, polyurethane, two epoxies, silicone rubber, and a low melt polyethylene high in waxes to reduce thermal decomposition of the chlorpyrifos.

[6] = Release rate of 10 wt. % pyrethroid impregnated polymers (Example 5)
[7] = Release rate of chlorpyrifos from polymer devices (Example 1); conditions: 50° C.
Experimental: Experiments were conducted to determine the release rate of chlorpyrifos. Loading rates for the insecticide were either 5 wt. % (weight percent) or 10 wt. % depending on the polymer. Release rates were determined for all devices at 50° C.
as §1
Release rates ranged from 10 μg/cm^2/day for the silicone rubber to 0.3 μg/cm^2/day for Epoxy B.

[8] = Release rate of pyrethrin from polymer systems (Example 2); conditions: Pyrethrin I content 10%, 40° C.
Experimental: Studies were also conducted with similar polymer systems as in Example 1 but with 80% pure pyrethrin.

[9] = Polyethylene MA 778-000, 10 percent pesticide
[10] = Polyurethane 2200, 10 percent pesticide
[11] = Polyurethane 3100, 10 percent pesticide

Structure (SMILES): CC1(C)[C@H](C(=O)O[C@H](C#N)c2cccc(Oc3ccccc3)c2)[C@@H]1/C=C(\Cl)C(F)(F)F (racemic) [Lambda cyhalothrin]
- Release Rate ([1]; EVA 763, 10 percent pesticide): 27.3 μg/cm^2/day
- Release Rate [1, 9]: 4.6 μg/cm^2/day
- Release Rate [1, 10]: 0.7 μg/cm^2/day
- Release Rate [1, 11]: 0.4 μg/cm^2/day
- Pyrethroid Release Rate ([2]; Ethylvinyl Acetate (EVA), pyrethroid 1 wt. %): 0.3 mg/cm^2/da
- Pyrethroid Release Rate ([2]; Ethylvinyl Acetate (EVA), pyrethroid 5 wt. %): 2.2 mg/cm^2/da
- Pyrethroid Release Rate ([2]; Ethylvinyl Acetate (EVA), pyrethroid 10 wt. %): 2.5 mg/cm^2/da
- Pyrethroid Release Rate ([2]; Polyurethane, pyrethroid 1 wt. %): 0.9 mg/cm^2/da
- Pyrethroid Release Rate ([2]; Polyurethane, pyrethroid 5 wt. %): 4.4 mg/cm^2/da
- Pyrethroid Release Rate ([2]; Polyurethane, pyrethroid 10 wt. %): 8.3 mg/cm^2/da
- Pyrethroid Release Rate ([2]; Polyurethane/EVA (50/50), pyrethroid 1 wt. %): 2.6 mg/cm^2/da
- Pyrethroid Release Rate ([2]; Polyurethane/EVA (50/50), pyrethroid 5 wt. %): 7.2 mg/cm^2/da
- Pyrethroid Release Rate ([2]; Polyurethane/EVA (50/50), pyrethroid 10 wt. %): 9.1 mg/cm^2/da
- Release Rate ([3]; carbon black 0 wt. %): 1.78 μg/cm^2/day
- Release Rate ([3]; carbon black 10 wt. %): 0.81 μg/cm^2/day
- Release Rate ([3]; carbon black 20 wt. %): 0.61 μg/cm^2/day
- release rate from barrier film ([4]; preferred eight-layer embodiment): less than 0.002 μg per square centimeter of film per day
- release rate from barrier film ([4]; six-layer embodiment): less than 0.002 μg per square centimeter of film per day
- temperature above which thermal decomposition and volatilization occurs ([5]; in the manufacturing process): > 160 °C

Structure (SMILES): Cc1c(F)c(F)c(COC(=O)[C@@H]2[C@H](/C=C(\Cl)C(F)(F)F)C2(C)C)c(F)c1F (racemic) [Tefluthrin]
- Release Rate ([1]; EVA 763, 10 percent pesticide): 40.4 μg/cm^2/day
- Release Rate [1, 9]: 27.0 μg/cm^2/day
- Release Rate [1, 10]: 25.0 μg/cm^2/day
- Release Rate [1, 11]: 6.4 μg/cm^2/day
- Release Rate ([6]; Ethylvinyl acetate): 4.3 mg/cm^2/da
- Release Rate ([6]; Polyethylene): 2.2 mg/cm^2/da
- Release Rate ([3]; carbon black 0 wt. %): 3.13 μg/cm^2/day
- Release Rate ([3]; carbon black 10 wt. %): 0.71 μg/cm^2/day

Structure (SMILES): CCOP(=S)(OCC)Oc1nc(Cl)c(Cl)cc1Cl [Chlorpyrifos, chlorpyrifos]
- Release Rate ([7]; Epoxy A, chlorpyrifos content 5%): <0.1 μg/cm^2/da
- Release Rate ([7]; Epoxy B, chlorpyrifos content 10%): 0.3 ± 0.1 μg/cm^2/da
- Release Rate ([7]; Epoxy B, chlorpyrifos content 10%, listed as chlorpyrifos): 0.3 μg/cm^2/da
- Release Rate ([7]; PE + Wax, chlorpyrifos content 10%): 1.9 ± 0.3 μg/cm^2/da
- Release Rate ([7]; Polyurethane, chlorpyrifos content 5%, material exhibited excessive cracking): 2.1 ± 1.4^b μg/cm^2/da
- Release Rate ([7]; Silicone, chlorpyrifos content 5%): 10.3 ± 3.5 μg/cm^2/da
- Release Rate ([7]; Silicone, chlorpyrifos content 5%, listed as chlorpyrifos): 10 μg/cm^2/da
- Release Rate ([7]; Urethane, chlorpyrifos content 10%): 1.0 ± 0.3 μg/cm^2/da
- temperature above which excessive thermal decomposition occurred ([5]; polymer processing): > 240 °C

Structure (SMILES): CC1(C)C(C=C(Cl)Cl)C1C(=O)OC(C#N)c1cccc(Oc2ccccc2)c1 (stereo not shown) [Cypermethrin]
- Release Rate ([1]; EVA 763, 10 percent pesticide): 27.3 μg/cm^2/day
- Release Rate [1, 9]: 4.6 μg/cm^2/day
- Release Rate [1, 10]: 0.7 μg/cm^2/day
- Release Rate [1, 11]: 0.4 μg/cm^2/day

Structure (SMILES): CC1(C)[C@H](C(=O)O[C@H](C#N)c2cccc(Oc3ccccc3)c2)[C@@H]1C=C(Br)Br [Deltamethrin]
- Release Rate ([1]; Alipmtic PS-49-100, 10 percent pesticide): 7.2 μg/cm^2/day
- Release Rate ([1]; Aromatic 80A, 10 percent pesticide): 16.8 μg/cm^2/day
- Release Rate ([1]; Pellethane 2102-55D, 10 percent pesticide): 8.0 μg/cm^2/day
- Release Rate ([1]; Pellethane 2102-80A, 10 percent pesticide): 8.8 μg/cm^2/day
- Release Rate ([1]; S-113 urethane, 10% pesticide, no carbon black): 25.2 μg/cm^2/day

Structure (SMILES): CC1(C)C(C=C(Cl)Cl)C1C(=O)OCc1cccc(Oc2ccccc2)c1 (stereo not shown) [Permethrin]
- Release Rate ([1]; EVA 763, 10 percent pesticide): 28.5 μg/cm^2/day
- Release Rate [1, 9]: 4.0 μg/cm^2/day
- Release Rate [1, 10]: 1.3 μg/cm^2/day
- Release Rate [1, 11]: 1.4 μg/cm^2/day
- Release Rate ([6]; Ethylvinyl acetate): 3.9 mg/cm^2/da
- Release Rate ([6]; Polyethylene): 1.4 mg/cm^2/da

Structure (SMILES): C=C/C=C\CC1=C(C)[C@@H](OC(=O)[C@@H]2[C@@H](C=C(C)C)C2(C)C)CC1=O [Pyrethrin I]
- Release Rate ([8]; Epoxy A): 0.5 ± 0.2 μg/cm^2/day
- Release Rate ([8]; Epoxy B): 0.2 ± 0.1 μg/cm^2/day
- Release Rate ([8]; Silicone): 21.2 ± 5.4 μg/cm^2/day
- Release Rate ([8]; Urethane): 15.7 ± 7.1 μg/cm^2/day
